Like-named read-outs stand apart in the source and are kept apart here.

Assay [1] concerns HCT116-MTAP wild-type (+/+)-cell strain. Nature of the assay: Tumor cell proliferation inhibition assay (CellTiter-Glo), HCT116-MTAP wild-type (+/+). Format: cell-based. The note with it: Homo sapiens, 120 h, 5-day treatment. Here is the method:
(§1) After the HCT116-MTAP-knockout (−/−) cell strain, the HCT116-MTAP wild-type(+/+)-cell strain, the DOHH-2 cell strain, or the Hut-78 cell strain was treated with the test compound for 5 days, the ATP level was measured using a CellTiter-Glo kit of Promega to evaluate the inhibition of the test compound against the growth of the tumor cell strain.
(§2) In the present application, the HCT116-MTAP-knockout (−/−) cell strain, the HCT116-MTAP wild-type (+/+)-cell strain, the DOHH-2 cell strain, or the Hut-78 cell strain was seeded into a 96-well cell culture plate at an appropriate cell density. After 24 h, the cells were treated using the test compounds diluted 1:3 fold at the highest concentration of 10 μM for 10 gradients, and a DMSO treatment group was set up separately. The cells were cultured in a 37° C./5% CO2 incubator for 5 days.

The test system of assay [2] is SDMA in human colon cancer cell line HCT116. Nature of the assay: Cell symmetric dimethylarginine (SDMA) test, In-cell Western, HCT116 (MTAP wild-type). Format: cell-based. As to conditions: Homo sapiens, HCT-116, 96 h. In short, it runs like this:
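HCT116 cells treated 4 days at 37° C with compound, top concentration 6 μM, 1:4 dilutions, 6 points, versus DMSO. Fixed cells stained for SDMA with DRAQ5 normalisation; 800/700 nm ratio after background subtraction fitted by non-linear regression for IC50.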

Assay [3] deals with SDMA in HCT116-MTAP-knockout cell line. Kind of assay: Cell symmetric dimethylarginine (SDMA) test, In-cell Western, HCT116-MTAP-knockout. Format: cell-based. The note with it: Homo sapiens, 96 h.
Assay [4] has as its target MAT2A recombinant protein (Homo sapiens, UniProt P31153). Kind of assay: MAT2A inhibitory activity (malachite green colorimetric enzyme assay). Format: biochemical. The method, boiled down: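 Recombinant human MAT2A with L-methionine and ATP in 50 mM HEPES pH 7.5, 50 mM KCl, 10 mM MgCl2, 10 mM DTT, 60 min at room temperature. Phosphate released detected by malachite green reagent (15 min) at 630 nm. Ten-point 1:3 series from 1000 nM final; IC50 by variable-slope non-linear regression.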

Assay [5] deals with HCT116-MTAP-knockout (−/−) cell strain. Nature of the assay: Tumor cell proliferation inhibition assay (CellTiter-Glo), HCT116-MTAP-knockout (-/-). Format: cell-based. The note with it: Homo sapiens, 120 h, 5-day treatment. The protocol: as §1, §2
In general terms: In ATP-based viability assays light output follows the ATP content of the culture.

Where [6] appears, read: HCT116-MTAP wild-type (+/+) cells, IC50 score, read-out: Tumor cell 5-day relative growth inhibition (HCT116-MTAP+/+) (nM), score.
Where [7] appears, read: HCT116-MTAP wild-type (+/+) cells, IC50 value, read-out: Tumor cell 5-day relative growth inhibition (HCT116-MTAP+/+).
[8] abbreviates: IC50 score class, read-out: Cell 96 h SDMA Inhibition (HCT116-MTAP+/+) (score).
Setting [9] is: read-out: Cell 96 h SDMA inhibition (HCT116-MTAP+/+).
The mark [10] stands for this setting: IC50 score class, read-out: Cell 96 h SDMA Inhibition (HCT116-MTAP−/−) (score).
Setting [11] is: read-out: Cell 96 h SDMA Inhibition (HCT116-MTAP−/−).
Setting [12] is: IC50 score class, read-out: MAT2A Inhibition (score).
The mark [13] stands for this setting: HCT116-MTAP-knockout (−/−) cells, IC50 score, read-out: Tumor cell 5-day relative growth inhibition (HCT116-MTAP−/−) (nM), score.
The mark [14] stands for this setting: HCT116-MTAP-knockout (−/−) cells, IC50 value, read-out: Tumor cell 5-day relative growth inhibition (HCT116-MTAP−/−).

MAT2A recombinant protein, sequence (P31153 whole entry): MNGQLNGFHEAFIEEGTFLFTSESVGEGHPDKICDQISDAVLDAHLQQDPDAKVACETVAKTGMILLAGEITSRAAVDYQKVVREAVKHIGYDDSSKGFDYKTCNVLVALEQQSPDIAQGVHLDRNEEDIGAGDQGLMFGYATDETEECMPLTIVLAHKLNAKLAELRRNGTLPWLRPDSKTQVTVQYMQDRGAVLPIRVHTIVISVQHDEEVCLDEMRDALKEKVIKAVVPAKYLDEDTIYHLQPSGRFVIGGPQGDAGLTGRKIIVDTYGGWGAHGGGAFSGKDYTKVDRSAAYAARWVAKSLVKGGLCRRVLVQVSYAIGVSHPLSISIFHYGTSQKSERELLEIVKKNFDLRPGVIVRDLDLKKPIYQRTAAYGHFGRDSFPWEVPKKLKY

As to `Cn1cc2c(n1)c(=O)n(-c1cccnc1C(F)(F)F)c1cc(Cl)ccc21` [Compound B68], the IC50 in assay [1] (setting [6]) was ≥ 2000 nM; in assay [1] (setting [7]), > 2000 nM; in assay [2] (setting [8]), > 3000 nM; in assay [2] (setting [9]), > 3000 nM; in assay [3] (setting [10]), 200 to 1000 nM; in assay [3] (setting [11]) it was 213 nM. In addition, the IC50 was < 100 nM in assay [4] (setting [12]), 45.1 nM in assay [4] (read-out: MAT2A Inhibition), < 500 nM in assay [5] (setting [13]) and 41.4 nM in assay [5] (setting [14]).

Turning to `O=c1c2n[nH]cc2c2ccc(C(F)(F)F)nc2n1-c1cccc2[nH]ncc12` [Compound B239], the IC50 in assay [1] (setting [6]) is < 500 nM; in assay [1] (setting [7]) it was 477 nM; in assay [2] (setting [8]), > 3000 nM; in assay [2] (setting [9]) it was > 10000 nM; in assay [3] (setting [10]) it was < 200 nM; in assay [3] (setting [11]), 11 nM. Moreover, the IC50 was < 100 nM in assay [4] (setting [12]), 14.7 nM in assay [4] (read-out: MAT2A Inhibition), < 500 nM in assay [5] (setting [13]) and 50 nM in assay [5] (setting [14]).

Regarding `O=c1c2nn(C3CC3)cc2c2ccc(C(F)(F)F)nc2n1-c1cccc2[nH]ncc12` [Compound B250], the IC50 is 500 to 2000 nM in assay [1] (setting [6]); 939 nM in assay [1] (setting [7]); > 3000 nM in assay [2] (setting [8]); 3970 nM in assay [2] (setting [9]); 200 to 1000 nM in assay [3] (setting [10]); 110 nM in assay [3] (setting [11]). Also, the IC50 in assay [4] (setting [12]) was < 100 nM; in assay [4] (read-out: MAT2A Inhibition), 28.1 nM; in assay [5] (setting [13]) it was < 500 nM; in assay [5] (setting [14]), 299 nM.

As to `O=c1c2nn(C(F)F)cc2c2ccc(C(F)(F)F)nc2n1-c1cccnc1` [Compound B255], the IC50 in assay [1] (setting [6]) is ≥ 2000 nM; in assay [1] (setting [7]), 12800 nM; in assay [2] (setting [8]), > 3000 nM; in assay [2] (setting [9]), 3440 nM; in assay [3] (setting [10]), 200 to 1000 nM; in assay [3] (setting [11]) it was 222 nM. Moreover, the IC50 in assay [4] (setting [12]) is < 100 nM; in assay [4] (read-out: MAT2A Inhibition), 19.7 nM; in assay [5] (setting [13]) it was 500 to 2000 nM; in assay [5] (setting [14]), 1160 nM.

On to `O=c1c2n[nH]cc2c2cc(F)c(Cl)cc2n1-c1cccc2[nH]ncc12` [Compound B263], for which the IC50 was < 500 nM in assay [1] (setting [6]); 173 nM in assay [1] (setting [7]); 200 to 1000 nM in assay [2] (setting [8]); 687 nM in assay [2] (setting [9]); < 200 nM in assay [3] (setting [10]); 3.7 nM in assay [3] (setting [11]). Also, the IC50 in assay [4] (setting [12]) is < 100 nM; in assay [4] (read-out: MAT2A Inhibition), 9.3 nM; in assay [5] (setting [13]), < 500 nM; in assay [5] (setting [14]), 21 nM.

`CN1CCN(c2ccc(Cn3cc4c(n3)c(=O)n(-c3cccc5[nH]ncc35)c3cc(Cl)c(F)cc43)cn2)CC1` [Compound B268]: the IC50 in assay [1] (setting [6]) was ≥ 2000 nM; in assay [1] (setting [7]) it was 5240 nM; in assay [2] (setting [8]), > 3000 nM; in assay [2] (setting [9]) it was > 10000 nM; in assay [3] (setting [10]) it was 1000 to 3000 nM; in assay [3] (setting [11]) it was 1240 nM. Moreover, the IC50 was < 100 nM in assay [4] (setting [12]), 81 nM in assay [4] (read-out: MAT2A Inhibition), ≥ 2000 nM in assay [5] (setting [13]) and 3650 nM in assay [5] (setting [14]).

As to `Cn1cc2c(n1)c(=O)n(-c1cccc3[nH]ncc13)c1nc(C(F)(F)F)c(F)cc21` [Compound B274], the IC50 in assay [1] (setting [6]) was ≥ 2000 nM; in assay [1] (setting [7]) it was > 10000 nM; in assay [2] (setting [8]), 200 to 1000 nM; in assay [2] (setting [9]), 240 nM; in assay [3] (setting [10]) it was 200 to 1000 nM; in assay [3] (setting [11]), 147 nM. For the same molecule, the IC50 in assay [4] (setting [12]) is < 100 nM; in assay [4] (read-out: MAT2A Inhibition), 9 nM; in assay [5] (setting [13]), < 500 nM; in assay [5] (setting [14]) it was 72.5 nM.

Consider `CN1CCN(c2nccc(Cn3cc4c(n3)c(=O)n(-c3cccc5[nH]ncc35)c3cc(Cl)c(F)cc43)n2)CC1` [Compound B333], for which the IC50 in assay [1] (setting [6]) was 500 to 2000 nM; in assay [1] (setting [7]), 550 nM; in assay [2] (setting [8]), > 3000 nM; in assay [2] (setting [9]), > 10000 nM; in assay [3] (setting [10]), < 200 nM; in assay [3] (setting [11]), 98.5 nM. Also, the IC50 was < 100 nM in assay [4] (setting [12]), 100 nM in assay [4] (read-out: MAT2A Inhibition), < 500 nM in assay [5] (setting [13]) and 284 nM in assay [5] (setting [14]).

For `Cn1cnc2c(=O)n(-c3cccnc3C3CC3)c3cc(Cl)c(F)cc3c21` [Compound B336], the IC50 is ≥ 2000 nM in assay [1] (setting [6]); 9700 nM in assay [1] (setting [7]); > 3000 nM in assay [2] (setting [8]); > 10000 nM in assay [2] (setting [9]); < 200 nM in assay [3] (setting [10]); 18.7 nM in assay [3] (setting [11]). Moreover, the IC50 in assay [4] (setting [12]) was < 100 nM; in assay [4] (read-out: MAT2A Inhibition), 12 nM; in assay [5] (setting [13]), < 500 nM; in assay [5] (setting [14]), 145 nM.

As to `Cn1cnc2c(=O)n(-c3cccnc3C(F)(F)F)c3cc(Cl)c(F)cc3c21` [Compound B351], the IC50 in assay [1] (setting [6]) is ≥ 2000 nM; in assay [1] (setting [7]), > 10000 nM; in assay [2] (setting [8]), > 3000 nM; in assay [2] (setting [9]) it was > 10000 nM; in assay [3] (setting [10]), < 200 nM; in assay [3] (setting [11]), 10 nM. The IC50 is < 100 nM in assay [4] (setting [12]), 26 nM in assay [4] (read-out: MAT2A Inhibition), 500 to 2000 nM in assay [5] (setting [13]) and 765 nM in assay [5] (setting [14]).

With `Cn1cc2c(n1)c(=O)n(-c1cccnc1C1CC1)c1nc(C3CC3)c(F)cc21` [Compound B359], the IC50 in assay [1] (setting [6]) was ≥ 2000 nM; in assay [1] (setting [7]), > 10000 nM; in assay [2] (setting [8]), > 3000 nM; in assay [2] (setting [9]), > 10000 nM; in assay [3] (setting [10]), < 200 nM; in assay [3] (setting [11]) it was 6.2 nM. Further, the IC50 in assay [4] (setting [12]) was < 100 nM; in assay [4] (read-out: MAT2A Inhibition), 9.6 nM; in assay [5] (setting [13]) it was < 500 nM; in assay [5] (setting [14]) it was 87 nM.

As for `Cn1cc2c(n1)c(=O)n(-c1cccc3ccccc13)c1cc(Cl)c(F)cc21` [Compound B370], the IC50 is ≥ 2000 nM in assay [1] (setting [6]); > 10000 nM in assay [1] (setting [7]); > 3000 nM in assay [2] (setting [8]); > 10000 nM in assay [2] (setting [9]); 200 to 1000 nM in assay [3] (setting [10]); 554 nM in assay [3] (setting [11]). Further, the IC50 in assay [4] (setting [12]) was < 100 nM; in assay [4] (read-out: MAT2A Inhibition), 58 nM; in assay [5] (setting [13]) it was ≥ 2000 nM; in assay [5] (setting [14]), > 10000 nM.

As to `N#Cc1cc2c3c[nH]nc3c(=O)n(-c3cccc4[nH]ncc34)c2cc1Cl` [Compound B394], the IC50 in assay [1] (HCT116-MTAP+/+ cells, IC50 class score, read-out: Tumor cell 5-day relative growth inhibition (HCT116-MTAP+/+) (nM), score) is ≥ 2000 nM; in assay [1] (HCT116-MTAP+/+ cells, read-out: Tumor cell 5-day relative growth inhibition (HCT116-MTAP+/+)), 6840 nM; in assay [2] (setting [8]), > 3000 nM; in assay [2] (setting [9]) it was > 10000 nM; in assay [3] (setting [10]), < 200 nM; in assay [3] (setting [11]), 26 nM. Also, the IC50 in assay [4] (setting [12]) is < 100 nM; in assay [4] (read-out: MAT2A Inhibition), 19 nM; in assay [5] (HCT116-MTAP−/− cells, IC50 class score, read-out: Tumor cell 5-day relative growth inhibition (HCT116-MTAP−/−) (nM), score), < 500 nM; in assay [5] (HCT116-MTAP−/− cells, read-out: Tumor cell 5-day relative growth inhibition (HCT116-MTAP−/−)), 359 nM.
